# Activity calls are given as the source filed them.
# Tests used:
# [1] = growth suppression of PTEN-null colon cells, dose response, cell-based, HCT116 PTEN knockout (AID 1047); assay type: functional;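 also: HCT116 colon tumor cells with PTEN knocked out; cells exposed to compound for 60 hours before readout; potency for loss of cell viability measured by luminescence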
# HEK293 [2] = test: cells; assay type: functional, cell-based; conditions: Homo sapiens
# [3] = target: Sphingosine 1-phosphate receptor 1 (Homo sapiens, UniProt P21453); assay type: functional;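 also: Tango beta-arrestin reporter U2OS cells stimulated with S1P near its EC80; inhibitor potency meaning antagonism of receptor activation by the natural agonist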
# [4] = target: Beta-2 adrenergic receptor (Homo sapiens, UniProt P07550); test: beta2AR agonists driving receptor internalization, dose response, cell-based, FAP fluorogen, flow cytometry, cherry pick 1 (AID 588763); assay type: functional
# Chain of Beta-2 adrenergic receptor (P07550 whole entry): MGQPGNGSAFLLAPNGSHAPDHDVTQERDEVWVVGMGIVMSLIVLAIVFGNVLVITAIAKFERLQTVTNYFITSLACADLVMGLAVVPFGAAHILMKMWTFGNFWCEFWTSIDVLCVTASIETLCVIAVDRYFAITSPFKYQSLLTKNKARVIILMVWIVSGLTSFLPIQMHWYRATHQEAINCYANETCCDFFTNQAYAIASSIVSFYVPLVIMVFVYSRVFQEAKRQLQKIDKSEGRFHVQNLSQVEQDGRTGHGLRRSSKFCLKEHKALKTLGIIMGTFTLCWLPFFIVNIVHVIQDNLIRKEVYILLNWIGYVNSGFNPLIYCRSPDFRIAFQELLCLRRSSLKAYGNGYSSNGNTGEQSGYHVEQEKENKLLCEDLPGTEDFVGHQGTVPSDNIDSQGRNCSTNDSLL
# [5] = control 3'UTR Renilla luciferase suppression, dose response, counter-screen for Shn3 inhibitor project, cell-based, Clone20-Shn3RL, cherry-picked (AID 624133); assay type: functional
# INS1 = test: beta cell apoptosis inhibitors, cytokine rescue, dose response, luminescence, retest (AID 449756); assay type: functional, cell-based; conditions: Rattus norvegicus;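 also: cell death triggered by IL-1 beta plus TNF-alpha plus IFN-gamma mixture; protective hits raise ATP signal compared with cytokine alone wells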
# HEK293 [6] = test: NOD1 signaling inhibitors, primary screen, cell-based, luminescence, uHTS (AID 1578); assay type: functional; conditions: Homo sapiens
# [7] = HepG2 cell cytotoxicity, dose response, cytotoxicity control for Shn3 inhibitor project, CellTiter-Glo, cherry-picked (AID 624134); assay type: functional, cell-based
# HeLa = test: Cytotoxicity counterscreen assay for transcriptional activators of heat shock protein 70 (Hsp70). [Related pubchem assays: 1203, 1252 ]; assay type: functional; conditions: Homo sapiens;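 also: cells exposed to compound for 16 hours before readout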
# [8] = target: T1, Heat shock factor protein 1 (Mus musculus, UniProt P38532); test: inhibition of MG132-induced HSE-luciferase signal, confirmation, cell-based, NIH3T3, luminescence, dose retest (AID 2382); assay type: functional;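 also: NIH3T3 fibroblasts with HSF1-driven luciferase reporter stressed by proteasome inhibitor MG132; luminescence from HSF1-driven luciferase expression after 8 hours of MG132 stress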
# T1 sequence (P38532 whole entry): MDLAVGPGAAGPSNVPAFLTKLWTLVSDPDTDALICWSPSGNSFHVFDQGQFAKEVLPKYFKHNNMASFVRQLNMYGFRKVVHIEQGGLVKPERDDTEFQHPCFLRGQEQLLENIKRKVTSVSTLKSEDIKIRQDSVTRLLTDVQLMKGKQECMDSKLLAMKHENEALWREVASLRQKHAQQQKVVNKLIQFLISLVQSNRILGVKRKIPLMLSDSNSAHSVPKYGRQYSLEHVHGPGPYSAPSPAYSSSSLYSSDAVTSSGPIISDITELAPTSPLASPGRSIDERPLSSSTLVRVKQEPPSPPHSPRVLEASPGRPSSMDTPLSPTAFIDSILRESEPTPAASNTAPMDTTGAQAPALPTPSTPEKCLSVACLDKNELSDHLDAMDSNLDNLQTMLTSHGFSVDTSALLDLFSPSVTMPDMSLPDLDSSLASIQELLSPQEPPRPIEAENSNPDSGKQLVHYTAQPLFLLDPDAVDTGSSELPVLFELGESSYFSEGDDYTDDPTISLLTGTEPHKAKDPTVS
# HEK293 [9] = test: cells; assay type: functional, cell-based; conditions: Homo sapiens; remark: listed apart in the source
# [10] = Shn3 3'UTR reporter inhibitors, dose response, cell-based, Clone20 osteoblasts, firefly luciferase, cherry-picked (AID 624132); assay type: functional;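 also: firefly luciferase luminescence from reporter carrying the Shn3 3'UTR in osteoblasts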
# [11] = target: Sphingosine 1-phosphate receptor 4 (Homo sapiens, UniProt O95977); test: Fluorescence dose response cell-based high throughput screening assay for antagonists of the Sphingosine 1-Phosphate Receptor 4 (S1P4). [Related pubchem assays: 1524 (Confirmation in triplicates.), 1510 (Primary screen.)]; assay type: functional
# Chain of Sphingosine 1-phosphate receptor 4 (O95977 whole entry): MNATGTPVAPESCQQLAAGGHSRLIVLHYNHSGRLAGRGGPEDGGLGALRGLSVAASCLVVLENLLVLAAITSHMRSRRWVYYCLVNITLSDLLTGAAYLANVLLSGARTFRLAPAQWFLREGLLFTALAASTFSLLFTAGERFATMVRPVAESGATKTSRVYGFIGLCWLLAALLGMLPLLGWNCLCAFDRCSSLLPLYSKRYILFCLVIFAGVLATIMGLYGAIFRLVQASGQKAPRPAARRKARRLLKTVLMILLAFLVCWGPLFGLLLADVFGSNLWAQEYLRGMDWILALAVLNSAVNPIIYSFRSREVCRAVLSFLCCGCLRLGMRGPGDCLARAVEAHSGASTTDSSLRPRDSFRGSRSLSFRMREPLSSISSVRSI
# [12] = inhibitors of intracellular T. cruzi replication, confirmation, NIH3T3 host cells, beta-gal luminescence (AID 2044); assay type: functional, cell-based;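 also: intracellular parasites grown in NIH/3T3 mouse fibroblasts as host cells; luminescent beta-galactosidase reporter signal from transgenic T. cruzi replicating inside host cells; inhibitors lower the luminescence signal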
# [13] = growth suppression of beta-catenin-knockout colon cells, dose response, cell-based, HCT116, human colon tumor (AID 1045); assay type: functional;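 also: HCT116 colon tumor cells with beta catenin knocked out; cells exposed to compound for 60 hours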
# HEK293 [14] = test: NOD2 signaling inhibitors in MDP-stimulated cells, cell-based, uHTS, luminescence (AID 2001); assay type: functional; conditions: Homo sapiens
# [15] = cytotoxicity toward NIH3T3 fibroblasts, dose response, counter-screen, cell-based, ATP luminescence, mouse fibroblasts (AID 2010); assay type: functional;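 also: cells exposed to compound for about 90 hours before reading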
# [16] = target: T2, RNA-binding protein pos-1 (Caenorhabditis elegans, UniProt G5EF15); test: inhibitors of POS-1/mex-3 RNA binding, dose response, biochemical, fluorescence polarization (AID 1964);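 also: purified POS-1 fused to maltose binding protein made in E. coli; potency of compounds blocking POS-1 binding to fluorescent RNA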
# T2 sequence (G5EF15 whole entry): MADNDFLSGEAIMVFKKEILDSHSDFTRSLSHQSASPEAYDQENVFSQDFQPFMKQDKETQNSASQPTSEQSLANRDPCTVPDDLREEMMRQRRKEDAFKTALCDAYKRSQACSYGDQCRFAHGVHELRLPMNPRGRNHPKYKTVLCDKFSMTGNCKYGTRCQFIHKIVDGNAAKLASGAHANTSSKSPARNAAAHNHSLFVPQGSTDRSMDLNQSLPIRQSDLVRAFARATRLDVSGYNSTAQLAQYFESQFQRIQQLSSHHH
# [17] = target: T3, Replicative DNA helicase DnaB (Mycobacterium tuberculosis, UniProt P9WMR3); test: DnaB intein splicing inhibitors, dose response, biochemical, cell-free fluorescence (AID 449749); assay type: functional
# T3 sequence (P9WMR3 whole entry): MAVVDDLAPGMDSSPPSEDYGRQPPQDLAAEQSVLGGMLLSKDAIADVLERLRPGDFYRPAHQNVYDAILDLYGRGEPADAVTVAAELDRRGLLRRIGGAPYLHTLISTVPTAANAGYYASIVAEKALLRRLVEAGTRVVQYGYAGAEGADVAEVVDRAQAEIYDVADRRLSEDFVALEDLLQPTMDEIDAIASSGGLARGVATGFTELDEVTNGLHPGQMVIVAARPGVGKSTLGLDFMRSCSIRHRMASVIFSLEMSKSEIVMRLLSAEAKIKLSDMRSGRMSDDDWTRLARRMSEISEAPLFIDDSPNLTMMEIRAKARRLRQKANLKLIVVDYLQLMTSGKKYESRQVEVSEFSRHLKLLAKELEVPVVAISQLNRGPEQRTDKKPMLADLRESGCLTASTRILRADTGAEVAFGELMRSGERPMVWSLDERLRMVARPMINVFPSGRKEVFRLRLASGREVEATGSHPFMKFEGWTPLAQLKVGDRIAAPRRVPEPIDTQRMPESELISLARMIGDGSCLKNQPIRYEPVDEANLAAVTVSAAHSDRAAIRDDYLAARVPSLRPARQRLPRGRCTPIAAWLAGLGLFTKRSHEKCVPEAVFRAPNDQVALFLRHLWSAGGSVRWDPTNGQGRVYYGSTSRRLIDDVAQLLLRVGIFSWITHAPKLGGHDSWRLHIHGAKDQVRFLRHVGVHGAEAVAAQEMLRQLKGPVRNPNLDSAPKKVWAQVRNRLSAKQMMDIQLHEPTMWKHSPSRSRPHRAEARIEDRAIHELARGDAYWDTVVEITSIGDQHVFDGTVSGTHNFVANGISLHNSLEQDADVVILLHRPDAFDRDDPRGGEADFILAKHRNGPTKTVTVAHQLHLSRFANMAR
# Protein RecA = target: T4, Protein RecA (Mycobacterium tuberculosis, UniProt P9WHJ3); test: Fluorescence Cell-Free Homogeneous Dose Retest to Identify Inhibitors of RecA-Intein Splicing Activity. [Related pubchem assays (depositor defined):AID2097, AID2223, AID489010, AID492950]; assay type: functional
# T4 sequence (P9WHJ3 whole entry): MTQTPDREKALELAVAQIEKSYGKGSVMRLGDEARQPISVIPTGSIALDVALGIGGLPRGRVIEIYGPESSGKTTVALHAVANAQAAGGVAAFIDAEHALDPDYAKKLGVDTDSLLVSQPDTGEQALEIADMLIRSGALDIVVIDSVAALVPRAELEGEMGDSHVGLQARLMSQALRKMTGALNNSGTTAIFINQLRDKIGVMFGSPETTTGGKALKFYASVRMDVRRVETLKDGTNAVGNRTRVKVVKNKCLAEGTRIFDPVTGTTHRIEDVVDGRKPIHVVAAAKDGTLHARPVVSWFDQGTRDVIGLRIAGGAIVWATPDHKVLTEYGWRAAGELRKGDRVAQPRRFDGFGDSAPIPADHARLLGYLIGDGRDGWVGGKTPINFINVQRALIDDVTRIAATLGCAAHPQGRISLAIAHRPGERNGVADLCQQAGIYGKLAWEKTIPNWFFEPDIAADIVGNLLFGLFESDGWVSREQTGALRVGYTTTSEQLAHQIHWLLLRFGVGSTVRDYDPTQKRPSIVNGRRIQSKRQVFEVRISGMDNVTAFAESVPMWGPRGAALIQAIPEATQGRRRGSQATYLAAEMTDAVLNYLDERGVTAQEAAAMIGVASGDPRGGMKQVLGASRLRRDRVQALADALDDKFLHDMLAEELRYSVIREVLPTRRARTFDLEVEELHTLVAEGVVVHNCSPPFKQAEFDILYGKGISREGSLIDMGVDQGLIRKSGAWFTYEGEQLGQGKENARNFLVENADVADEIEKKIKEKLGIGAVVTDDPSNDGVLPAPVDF
# [18] = inhibitors of Bluetongue virus cytopathic effect, confirmation, arbovirus, BSR cells (AID 1250); assay type: functional;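 also: protection from viral cytopathic effect measured as cell viability by ATP luminescence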
# [19] = target: T5, Zinc finger protein mex-5 (Caenorhabditis elegans, UniProt Q9XUB2); test: MEX-5/TCR-2 RNA interaction inhibitors, dose response, biochemical, C. elegans, fluorescence polarization (AID 1960)
# T5 sequence (Q9XUB2 whole entry): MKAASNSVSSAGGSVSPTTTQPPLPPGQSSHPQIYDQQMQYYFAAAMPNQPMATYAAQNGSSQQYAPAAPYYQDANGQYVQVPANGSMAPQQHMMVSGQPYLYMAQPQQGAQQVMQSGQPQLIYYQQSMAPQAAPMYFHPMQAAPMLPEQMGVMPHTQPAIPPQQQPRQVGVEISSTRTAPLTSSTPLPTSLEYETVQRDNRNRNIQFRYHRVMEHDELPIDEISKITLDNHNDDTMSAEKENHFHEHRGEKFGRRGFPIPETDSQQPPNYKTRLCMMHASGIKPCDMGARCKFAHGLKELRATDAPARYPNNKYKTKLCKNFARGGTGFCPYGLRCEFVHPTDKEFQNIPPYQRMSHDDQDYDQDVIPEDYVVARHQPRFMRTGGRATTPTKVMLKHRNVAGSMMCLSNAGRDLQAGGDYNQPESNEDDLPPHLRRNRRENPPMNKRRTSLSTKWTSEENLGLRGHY
# [20] = target: T6, Mannose-6-phosphate isomerase (Homo sapiens, UniProt P34949); test: human PMI inhibitors, high substrate, primary screen, biochemical, fluorescence intensity, high mannose 6-phosphate (AID 1220)
# T6 sequence (P34949 whole entry): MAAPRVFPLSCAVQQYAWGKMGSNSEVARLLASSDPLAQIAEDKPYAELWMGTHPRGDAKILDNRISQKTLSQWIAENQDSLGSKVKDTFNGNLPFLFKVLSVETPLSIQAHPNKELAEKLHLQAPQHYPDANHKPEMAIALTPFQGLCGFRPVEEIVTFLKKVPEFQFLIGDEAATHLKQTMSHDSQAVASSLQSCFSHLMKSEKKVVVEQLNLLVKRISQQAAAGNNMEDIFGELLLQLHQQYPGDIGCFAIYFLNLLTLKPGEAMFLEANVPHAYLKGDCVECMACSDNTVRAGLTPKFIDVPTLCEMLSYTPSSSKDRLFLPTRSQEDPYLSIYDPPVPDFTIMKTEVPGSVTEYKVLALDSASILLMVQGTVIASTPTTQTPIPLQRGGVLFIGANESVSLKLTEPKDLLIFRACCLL
# [21] = target: Peroxisome proliferator-activated receptor gamma/Nuclear receptor coactivator 2 (Homo sapiens, UniProt P37231); assay type: functional;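 also: agonist potency for raising coactivator recruitment to the receptor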
# Chain of Peroxisome proliferator-activated receptor gamma/Nuclear receptor coactivator 2 (P37231 whole entry): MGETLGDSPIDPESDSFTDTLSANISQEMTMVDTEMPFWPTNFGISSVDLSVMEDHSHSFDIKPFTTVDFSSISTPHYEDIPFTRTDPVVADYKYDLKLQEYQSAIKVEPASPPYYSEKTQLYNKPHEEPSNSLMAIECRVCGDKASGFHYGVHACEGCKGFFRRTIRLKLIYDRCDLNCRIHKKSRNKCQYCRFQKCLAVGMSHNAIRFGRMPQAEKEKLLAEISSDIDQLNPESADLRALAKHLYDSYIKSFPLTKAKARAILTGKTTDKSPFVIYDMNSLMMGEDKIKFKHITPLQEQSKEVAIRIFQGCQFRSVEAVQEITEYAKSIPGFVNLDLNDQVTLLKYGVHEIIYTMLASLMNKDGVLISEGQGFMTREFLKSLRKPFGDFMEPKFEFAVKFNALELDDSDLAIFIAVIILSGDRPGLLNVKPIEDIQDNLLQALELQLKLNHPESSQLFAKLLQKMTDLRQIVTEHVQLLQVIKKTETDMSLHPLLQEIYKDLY
# Chain of Peroxisome proliferator-activated receptor gamma/Nuclear receptor coactivator 2 (Q15596 whole entry, further chain): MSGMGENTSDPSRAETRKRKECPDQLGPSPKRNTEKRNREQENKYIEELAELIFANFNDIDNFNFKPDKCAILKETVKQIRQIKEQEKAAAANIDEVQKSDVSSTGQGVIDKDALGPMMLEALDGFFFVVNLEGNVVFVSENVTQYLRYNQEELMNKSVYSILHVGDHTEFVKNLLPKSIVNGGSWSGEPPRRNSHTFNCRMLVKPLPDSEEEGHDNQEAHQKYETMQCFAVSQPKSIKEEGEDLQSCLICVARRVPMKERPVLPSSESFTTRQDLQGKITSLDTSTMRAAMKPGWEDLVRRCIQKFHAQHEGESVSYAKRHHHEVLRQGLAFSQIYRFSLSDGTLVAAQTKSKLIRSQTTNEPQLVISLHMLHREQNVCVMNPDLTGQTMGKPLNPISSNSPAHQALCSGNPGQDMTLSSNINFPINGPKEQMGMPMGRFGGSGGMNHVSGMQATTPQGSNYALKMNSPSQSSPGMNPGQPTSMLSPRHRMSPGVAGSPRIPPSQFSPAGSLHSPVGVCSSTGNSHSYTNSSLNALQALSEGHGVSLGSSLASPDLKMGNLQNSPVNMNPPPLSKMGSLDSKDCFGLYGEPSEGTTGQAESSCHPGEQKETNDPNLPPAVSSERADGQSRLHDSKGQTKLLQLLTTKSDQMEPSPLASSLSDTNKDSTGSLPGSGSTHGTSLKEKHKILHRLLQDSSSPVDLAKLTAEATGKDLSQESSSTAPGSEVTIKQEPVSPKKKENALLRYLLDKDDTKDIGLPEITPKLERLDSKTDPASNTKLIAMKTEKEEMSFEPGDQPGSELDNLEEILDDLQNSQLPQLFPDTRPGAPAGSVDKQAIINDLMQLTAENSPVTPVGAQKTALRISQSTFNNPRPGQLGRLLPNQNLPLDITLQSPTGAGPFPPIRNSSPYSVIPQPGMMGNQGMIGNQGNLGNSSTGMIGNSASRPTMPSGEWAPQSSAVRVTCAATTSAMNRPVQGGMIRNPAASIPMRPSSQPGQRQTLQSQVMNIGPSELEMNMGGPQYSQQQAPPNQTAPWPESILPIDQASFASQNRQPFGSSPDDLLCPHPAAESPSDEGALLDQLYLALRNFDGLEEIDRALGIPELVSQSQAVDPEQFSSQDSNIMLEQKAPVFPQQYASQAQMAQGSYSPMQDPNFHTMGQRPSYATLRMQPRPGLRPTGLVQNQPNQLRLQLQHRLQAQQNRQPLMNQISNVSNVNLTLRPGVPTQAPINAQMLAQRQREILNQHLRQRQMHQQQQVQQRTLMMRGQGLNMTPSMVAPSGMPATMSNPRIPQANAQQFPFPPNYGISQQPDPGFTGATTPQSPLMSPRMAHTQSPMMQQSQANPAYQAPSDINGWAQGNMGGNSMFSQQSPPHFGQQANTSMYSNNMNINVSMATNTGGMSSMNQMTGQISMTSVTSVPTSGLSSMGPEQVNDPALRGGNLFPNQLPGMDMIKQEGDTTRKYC
# Large T antigen = Large T antigen (Simian virus 40, UniProt P03070); assay type: functional, Betapolyomavirus macacae;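 also: Confirmatory-stage PubChem screen for compounds that inhibit SV40 T antigen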
# [22] = target: Peroxisome proliferator-activated receptor gamma/Nuclear receptor coactivator 3 (Homo sapiens, UniProt P37231); assay type: functional;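 also: agonist potency for raising coactivator recruitment to the receptor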
# Chain of Peroxisome proliferator-activated receptor gamma/Nuclear receptor coactivator 3 (P37231 whole entry): as the sequence (P37231 whole entry) above
# Chain of Peroxisome proliferator-activated receptor gamma/Nuclear receptor coactivator 3 (Q9Y6Q9 whole entry, further chain): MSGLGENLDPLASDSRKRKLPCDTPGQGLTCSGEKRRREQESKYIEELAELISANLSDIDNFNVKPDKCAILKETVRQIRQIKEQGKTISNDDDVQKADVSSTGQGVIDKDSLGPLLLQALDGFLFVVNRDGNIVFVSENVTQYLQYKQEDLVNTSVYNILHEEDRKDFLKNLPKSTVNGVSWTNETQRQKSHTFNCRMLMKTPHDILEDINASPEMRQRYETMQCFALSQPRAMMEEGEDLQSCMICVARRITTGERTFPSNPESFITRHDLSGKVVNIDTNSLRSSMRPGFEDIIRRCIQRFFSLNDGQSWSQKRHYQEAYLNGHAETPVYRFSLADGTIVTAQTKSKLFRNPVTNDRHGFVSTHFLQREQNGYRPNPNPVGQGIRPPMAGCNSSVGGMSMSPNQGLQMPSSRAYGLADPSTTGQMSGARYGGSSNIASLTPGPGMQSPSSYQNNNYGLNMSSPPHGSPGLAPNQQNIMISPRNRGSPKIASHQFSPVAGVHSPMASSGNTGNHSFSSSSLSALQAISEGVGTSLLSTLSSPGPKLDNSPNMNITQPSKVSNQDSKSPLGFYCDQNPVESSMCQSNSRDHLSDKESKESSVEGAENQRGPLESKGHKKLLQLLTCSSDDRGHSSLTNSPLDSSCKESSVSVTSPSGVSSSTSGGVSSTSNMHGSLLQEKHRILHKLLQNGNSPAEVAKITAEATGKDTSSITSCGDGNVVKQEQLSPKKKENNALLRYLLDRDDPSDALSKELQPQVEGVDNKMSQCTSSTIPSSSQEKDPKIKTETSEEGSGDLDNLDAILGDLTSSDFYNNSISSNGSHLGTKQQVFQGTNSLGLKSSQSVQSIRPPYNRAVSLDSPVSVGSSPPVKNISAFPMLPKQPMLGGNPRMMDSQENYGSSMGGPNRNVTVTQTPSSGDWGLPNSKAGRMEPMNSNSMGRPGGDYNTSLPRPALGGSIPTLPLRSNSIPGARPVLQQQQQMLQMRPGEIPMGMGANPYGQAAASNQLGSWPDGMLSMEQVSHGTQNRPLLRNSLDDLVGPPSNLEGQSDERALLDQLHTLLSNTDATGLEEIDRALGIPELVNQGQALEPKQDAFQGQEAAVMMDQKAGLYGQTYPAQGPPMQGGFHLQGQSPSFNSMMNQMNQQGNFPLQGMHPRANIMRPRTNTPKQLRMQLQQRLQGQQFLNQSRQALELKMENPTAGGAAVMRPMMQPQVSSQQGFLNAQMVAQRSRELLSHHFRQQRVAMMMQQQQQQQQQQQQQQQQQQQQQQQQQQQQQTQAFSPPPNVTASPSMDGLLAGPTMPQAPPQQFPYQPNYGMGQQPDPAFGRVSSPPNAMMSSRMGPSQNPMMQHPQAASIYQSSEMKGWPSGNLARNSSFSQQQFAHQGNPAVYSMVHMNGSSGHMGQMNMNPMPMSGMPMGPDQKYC
# [23] = target: Peroxisome proliferator-activated receptor gamma/Nuclear receptor coactivator 1 (Homo sapiens, UniProt P37231); assay type: functional;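 also: agonist potency as compounds enhance coactivator SRC-1 recruitment to PPARgamma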
# [24] = target: Induced myeloid leukemia cell differentiation protein Mcl-1 (Homo sapiens, UniProt Q07820); assay type: functional
# Chain of Induced myeloid leukemia cell differentiation protein Mcl-1 (Q07820 whole entry): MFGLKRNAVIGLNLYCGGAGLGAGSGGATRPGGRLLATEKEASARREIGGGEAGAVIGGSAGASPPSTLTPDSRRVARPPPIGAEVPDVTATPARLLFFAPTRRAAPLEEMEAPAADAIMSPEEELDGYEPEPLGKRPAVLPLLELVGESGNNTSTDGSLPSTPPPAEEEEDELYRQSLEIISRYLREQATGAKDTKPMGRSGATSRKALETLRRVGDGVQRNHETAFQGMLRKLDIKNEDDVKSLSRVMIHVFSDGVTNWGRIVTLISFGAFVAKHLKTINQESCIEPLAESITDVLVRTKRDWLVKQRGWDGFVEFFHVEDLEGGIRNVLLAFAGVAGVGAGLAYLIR
smiles,measurement,setting,value
Cc1ccc(-c2nc(NC(=O)c3nn(C)cc3[N+](=O)[O-])sc2C)cc1C,EC50,[1],0.224 µM (active)
same,IC50,HEK293 [2],6.72 µM (active)
same,IC50,[3],18.1 µM (not active)
same,EC50,[4],64.1 µM (inactive)
same,AC50,[5],6.06 µM (active)
same,AC50,INS1,3.62 µM (active)
same,EC50,HEK293 [6],9.93 µM (active)
same,AC50,[7],18.2 µM (active)
same,CC50,HeLa,2.08 µM (active)
same,EC50,[8],4.28 µM (inconclusive)
same,IC50,HEK293 [9],17.7 µM (active)
same,AC50,[10],2.25 µM (active)
same,IC50,[11],1 µM (active)
same,EC50,[12],2.7 µM (active)
same,EC50,[13],0.207 µM (active)
same,IC50,HEK293 [14],3.82 µM (active)
same,EC50,[15],4.71 µM (active)
O=C1NC(=O)N(Cc2ccc(F)cc2)C(=O)/C1=C/NNC(=O)c1ccccc1O,EC50,[16],10.1 µM (active)
same,AC50,[17],6.55 µM (active)
same,EC50,Protein RecA,21.9 µM (active)
same,IC50,[18],> 100 µM (active)
same,EC50,[19],9.33 µM (active)
COc1ccc(N2CCC(CNC(=O)Nc3ccccc3)C2)cc1 (stereo not drawn),IC50,[20],> 50 µM (not active)
same,EC50,[21],> 79.4 µM (not active)
same,IC50,Large T antigen,10.6 µM (active)
same,EC50,[22],> 79.4 µM (not active)
same,EC50,[23],> 79.4 µM (not active)
same,IC50,[24],2.58 µM (active)
